These are literature values, as cited in article PMC4112557 (Bioconjugate Chemistry, 2014).

For the data set, the target named is PSMA (Homo sapiens, UniProt Q04609). The conditions noted are these: hydrolysis of NAAG in the amplex red assay.

Where a SMILES comes first, the peptide text is derived from it.

Chain of PSMA (Q04609 whole entry): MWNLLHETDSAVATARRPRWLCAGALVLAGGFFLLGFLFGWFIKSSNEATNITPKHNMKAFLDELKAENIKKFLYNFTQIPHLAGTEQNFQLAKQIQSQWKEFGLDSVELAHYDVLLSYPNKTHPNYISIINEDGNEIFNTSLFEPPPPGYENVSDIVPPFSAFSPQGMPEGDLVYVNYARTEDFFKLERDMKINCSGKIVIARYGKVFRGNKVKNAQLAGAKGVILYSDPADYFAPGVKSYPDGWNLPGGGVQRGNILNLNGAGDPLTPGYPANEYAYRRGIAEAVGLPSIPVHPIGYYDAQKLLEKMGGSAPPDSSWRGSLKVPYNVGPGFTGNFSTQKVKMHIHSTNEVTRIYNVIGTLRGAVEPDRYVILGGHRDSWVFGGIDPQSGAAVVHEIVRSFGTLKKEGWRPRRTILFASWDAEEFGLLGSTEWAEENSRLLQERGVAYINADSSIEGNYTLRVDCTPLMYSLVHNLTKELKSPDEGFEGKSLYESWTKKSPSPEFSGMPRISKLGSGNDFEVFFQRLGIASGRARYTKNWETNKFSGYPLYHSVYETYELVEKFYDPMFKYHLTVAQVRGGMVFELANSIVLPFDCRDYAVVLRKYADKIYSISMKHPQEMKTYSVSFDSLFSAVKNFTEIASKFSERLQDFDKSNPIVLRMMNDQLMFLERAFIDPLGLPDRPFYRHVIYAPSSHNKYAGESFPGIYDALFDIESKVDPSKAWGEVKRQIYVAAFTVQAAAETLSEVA

Consider `CC(=O)N[C@@H](CC(=O)O)C(=O)N[C@@H](CCC(=O)O)C(=O)O` [NAAG, N-acetylaspartylglutamic acid] (Ac-Asp-Glu-OH), for which the Michaelis-Menten constant (Km) is 1.15 µM.
